Test: xn = mol fraction of the nth substance listed
Conditions: 101 kPa, Liquid

Clc1ccccc1 [chlorobenzene] + CCCCCO
mass density [kg/m3]
Conditions | 288.15 K | 293.15 K | 298.15 K | 303.15 K | 308.15 K | 313.15 K
x2 = 0 | 1111.81 | 1106.43 | 1101.04 | 1095.64 | 1090.23 | 1084.82
x2 = 0.0495 | 1096.2 | 1090.85 | 1085.48 | 1080.11 | 1074.71 | 1069.32
x2 = 0.1004 | 1080.5 | 1075.21 | 1069.9 | 1064.57 | 1059.22 | 1053.86
x2 = 0.1503 | 1065.26 | 1060.04 | 1054.8 | 1049.54 | 1044.25 | 1038.95
x2 = 0.2001 | 1050.21 | 1045.07 | 1039.9 | 1034.71 | 1029.5 | 1024.27
x2 = 0.2498 | 1035.28 | 1030.21 | 1025.13 | 1020.02 | 1014.88 | 1009.72
x2 = 0.2998 | 1020.4 | 1015.41 | 1010.4 | 1005.37 | 1000.32 | 995.245
x2 = 0.3497 | 1005.6 | 1000.69 | 995.77 | 990.822 | 985.847 | 980.857
x2 = 0.3992 | 991.011 | 986.186 | 981.346 | 976.483 | 971.589 | 966.679
x2 = 0.4498 | 976.171 | 971.436 | 966.685 | 961.906 | 957.097 | 952.274
x2 = 0.5 | 961.565 | 956.92 | 952.254 | 947.565 | 942.839 | 938.086
x2 = 0.5497 | 947.132 | 942.578 | 938.003 | 933.402 | 928.768 | 924.119
x2 = 0.6 | 932.622 | 928.159 | 923.676 | 919.168 | 914.627 | 910.077
x2 = 0.65 | 918.243 | 913.875 | 909.486 | 905.07 | 900.622 | 896.149
x2 = 0.6998 | 903.925 | 899.658 | 895.367 | 891.05 | 886.702 | 882.307
x2 = 0.7499 | 889.607 | 885.436 | 881.246 | 877.028 | 872.777 | 868.496
x2 = 0.8001 | 875.288 | 871.223 | 867.134 | 863.017 | 858.866 | 854.684
x2 = 0.8496 | 861.143 | 857.181 | 853.196 | 849.186 | 845.143 | 841.079
x2 = 0.9002 | 846.722 | 842.865 | 838.986 | 835.082 | 831.149 | 827.194
x2 = 0.95 | 832.515 | 828.762 | 824.99 | 821.195 | 817.369 | 813.521

— the NIST ThermoML archive (doi:10.1016/j.fluid.2007.09.028)
